Series [1] has as its system P388 murine leukemia cells. Nature of the series: In vitro cytotoxicity, continuous (48-hour) exposure of P388 cells. The format is cell-based. The note with it: Mus musculus; P388, continuous exposure (48-hour); read-out: in vitro cytotoxicity IC50, cont. exp. As to the method: (§1) In vitro cytotoxicity was assayed by determining cell survival following exposure of P388 murine leukemia cells to a range of test compound concentrations. Cytotoxicity was quantitated following either a one-hour exposure or continuous exposure of P388 cells to test compound.
(§2) A Manual of Basic Technique. […] Briefly, following drug exposure cells were plated in soft agar and incubated (37°, 5% CO2) for 7-10 days during which time viable cells form visible colonies. Cytotoxicity following continuous exposure of cells to test compound was assayed by quantitating total P388 cells on a Coultier Counter following a 48-hour co-incubation of test compound with cells. P388 cells were maintained in log phase throughout the duration of cytotoxicity assays.
(§3) The percentage of cells surviving relative to an untreated control was graphed as a function of increasing drug concentration.

In series [2] the test system is P388 murine leukemia cells. Briefly: In vitro cytotoxicity, one-hour exposure, clonogenic survival of P388 cells. The format is cell-based. Particulars: Mus musculus, read-out: in vitro cytotoxicity IC50, 1 hr exp.; P388, 1 hr exposure. On the procedure: as §1, §2, §3
The target of a further series is T1, human topoisomerase II (Homo sapiens, UniProt P11388).
T1 construct: Topo II was purified from late log phase suspension cultures of HeLa WIS; endogenous in cells; host or cells: HeLa WIS
Nature of the series: Mammalian topoisomerase II inhibition assay (topo II covalently attached to DNA, relative to mAMSA). In kind it is biochemical. Particulars: read-out: topo II inh. EC50. The source says:
The inhibition of human topoisomerase II (hereafter topo II) was quantitated by a procedure adapted from that described by Trask et al., EMBO J., 3, 671-676 (1984). The assay quantitates the amount of topo II covalently attached to DNA at equilibrium during a topo II reaction. This assay determines the potential of a compound to stabilize this complex, which potential is closely related to the cytotoxicity of the compound.
Topo II was purified from late log phase suspension cultures of HeLa WIS by an adaptation of the method described by Per et al., Mol. Pharmacol., 32, 17-25 (1987).
Assays (in duplicate) were assembled at 4° C. Assay mix (25 μl) was distributed in Beckman (No. 265270) 1.5 mL microtiter tubes followed by the addition of 5 μl test compound to yield the final concentrations of assay components:
The assay mix including the test compound was incubated for 20 minutes at 37° C. The reaction was terminated at 37° C. by the addition of 3 μl 10% SDS followed by the addition of 266 μl 10 mM Tris-Cl pH 7.5, 20 μg/ml BSA, 20 μg/ml calf thymus DNA, 1% SDS.
A SDS/protein precipitate was formed by the addition of 28 μl 2.5M KCl followed by chilling on ice for a minimum of 10 minutes. The precipitate was collected and washed with a Brandell cell harvester on a GFB glass fiber filter membrane as follows. The contents of the assay tube were drawn up into the harvester. The tube was then rinsed 7× with 10 mM Tris-Cl pH 7.5, 1 mM EDTA and 100 mM KCl. The precipitate was washed with 1 L of a solution of 10 mM Tris-Cl pH 7.5, 1 mMEDTA, 100 mM KCl followed by 1 L of 95% ethyl alcohol and finally 0.5 L 70% of ethyl alcohol (per 48 samples in each case). After drying, CPM was determined by liquid scintillation counting with 5 ml Biofluor (NEN Research Products) or Readisafe (Beckman Instruments Inc.) cocktail.
Preparation of test compound--A stock solution (6 mg/ml) of test compound was prepared either in 0.1N sodium hydroxide or 0.2N hydrogen chloride. This solution then was diluted 1/5 into water and serially thereafter in either 0.02N sodium hydroxide or 0.04N hydrogen chloride, respectively. The stock solution and serial dilution of the test compound was stored at -20° C. prior to testing.
Screening of test compound--As an initial screen, the test compound was tested at a final concentration of 2, 20 and 200 μg/ml. The compound was then retested at a range of concentrations (usually 2-3×steps) bridging their approximate EC50 's, as estimated by the prescreen.
Controls--A solvent control which indicates the base level of topo II-DNA complex formed in the absence of the test compound was included in each test. A control, in which topo II was omitted, was included for each test compound at the highest drug concentration tested.
Reference Agent--A dose response curve with mAMSA at 0.01, 0.08, 0.16, 0.32, 1.0 and 10 μg/ml was included in each test.
The maximal DNA-topo II complex formed is taken as that equal to that formed at the nearly saturating dose of mAMSA (10 μg/ml).

Series [3] in a line: In vivo antitumor assay, Panc03(sc). Particulars: mouse, in vivo, MTD. More on the design: species or system mice. The text has this: Mice: Inbred: C3H/He and NCR-nu; and Hybrids: B6D2F1 (C57BL/6 females×DBA/2 males, CD2F1 (Balb/c females×DBS/2 males) and B6C3fl (C57BL/6×C3H) were bred at Wayne State University from strains obtained from the Frederick Cancer Research Facility, Frederick, Maryland or purchased from commercial suppliers.
Tumors: Murine Tumor: P388 and an adriamycin-resistant (ADR) subline P388/ADR leukemia and the following transplantable solid tumors of mice were used for in vivo testing: B16 melanoma (B16), pancreatic ductal adenocarcinoma No. 03 (Pane 03), colon adenocarcinoma No. 38 (colo 38), lung carcinoma No. 12 (LC 12), mammary ductal adenocarcinoma No. 16/C (Mam16C) and an adriamycin-resistant subline Mam16C/ADR. Human tumor: A single human tumor, mammary carcinoma MX-1 was used for in vivo testing. All tumors are in the Developmental Therapeutics Program frozen tumor respository, maintained by the Biological Testing Branch, Frederick Maryland. Each has a detailed description, code identification number, and list of references at the National Tumor Repository. Murine tumors were maintained in the mouse strain of origin and were transplanted in the appropriate F1 hydrid (or the strain of origin) for therapy trials. Human mammary carcinoma MX-1 (MX1) was maintained as a subcutaneous implant in either athymic Swiss (Cr: NIH(S)-nu) or athymic random bred (NCR-nu) mice and transplanted in NCR-nu for therapy trials.
Chemotherapy: For pancreatic ductal adenocarcinoma No. 3, colon adenocarcinoma No. 38 (colo 38), lung carcinoma No. 12 LC 12) and both adriamycin-sensitive (RP) and-resistant (ADR) mammary ductal adenocarcinoma No. 16 (Mam16) tumors, bilateral tumor implants were used to help ensure a more uniform tumor burden per mouse (thus reducing the requirement for greater numbers of mice per group). The animals necessary to begin an experiment were pooled, implanted bilaterally s.c. on day zero with 30-60 mg tumor fragments using a 12-gauge trocar, and again pooled before randomization to the various treatment and control groups. Chemotherapy was started within three days after tumor implantation while the number of cells per mouse was relatively small (1×10^7 -1×10^8 cells).
Quantitative end points used to assess antitumor activity included % Increased Life Span (% ILS), Tumor Cell Kill (Log10 kill), and Tumor Growth Inhibition (T/C). Long Term Survivors (45 or 60 day) were excluded from calculations of %ILS and Tumor Cell Kill.
The log10 cell kill was calculated from the following formula: [formula] where T-C is the tumor difference in the median day of death between the treated (T) and the control (C) groups and Td is the tumor doubling time (in days), the latter estimated from the best fit straight line from a log-linear growth plot of the control-group tumors in exponential growth. The conversion of the T-C values to log10 cell kill is possible because the Td for tumors regrowing post-treatment approximated the Td values of the tumors in untreated control mice.
Tumors were measured with a caliper once or twice weekly (as needed) until either tumors exceeded 1600 mg or cure was assured. Tumor weights were estimated from two-dimensional measurements: Tumor Weight (mg)=(a×b^2) / 2, where a and b are the tumor length and width (ram) respectively. Measurements were carried out simultaneously in both treatment and control groups. When the control group tumors reached approximately 750-1500 mg in size (median of group), the median tumor weight of each group was determined (including zeros). The T/C value in percent is an indication of antitumor effectiveness. The % T/C was calculated from the following formula for solid murine tumor models: [formula] where T and C are median tumor weights of the treatment and control groups, respectively. A T/C equal to or less than 42% is considered significant antitumor activity. […]

Where [4] appears, read: conc. achieving 50% of maximal effect of mAMSA, topo II from HeLa cells.

Among the data in US5334595A, “Pyrazoloquinolones as anticancer agents” (priority 1992, dated 1994) are IC50, EC50 and MTD values, retold here.

Where two headings read alike, the source gives them in different places.

For orientation: IC50 means the concentration needed to halve the response being measured. A word on the EC50: it is the concentration needed to bring the measured effect to its halfway point.

T1 sequence (P11388 whole entry): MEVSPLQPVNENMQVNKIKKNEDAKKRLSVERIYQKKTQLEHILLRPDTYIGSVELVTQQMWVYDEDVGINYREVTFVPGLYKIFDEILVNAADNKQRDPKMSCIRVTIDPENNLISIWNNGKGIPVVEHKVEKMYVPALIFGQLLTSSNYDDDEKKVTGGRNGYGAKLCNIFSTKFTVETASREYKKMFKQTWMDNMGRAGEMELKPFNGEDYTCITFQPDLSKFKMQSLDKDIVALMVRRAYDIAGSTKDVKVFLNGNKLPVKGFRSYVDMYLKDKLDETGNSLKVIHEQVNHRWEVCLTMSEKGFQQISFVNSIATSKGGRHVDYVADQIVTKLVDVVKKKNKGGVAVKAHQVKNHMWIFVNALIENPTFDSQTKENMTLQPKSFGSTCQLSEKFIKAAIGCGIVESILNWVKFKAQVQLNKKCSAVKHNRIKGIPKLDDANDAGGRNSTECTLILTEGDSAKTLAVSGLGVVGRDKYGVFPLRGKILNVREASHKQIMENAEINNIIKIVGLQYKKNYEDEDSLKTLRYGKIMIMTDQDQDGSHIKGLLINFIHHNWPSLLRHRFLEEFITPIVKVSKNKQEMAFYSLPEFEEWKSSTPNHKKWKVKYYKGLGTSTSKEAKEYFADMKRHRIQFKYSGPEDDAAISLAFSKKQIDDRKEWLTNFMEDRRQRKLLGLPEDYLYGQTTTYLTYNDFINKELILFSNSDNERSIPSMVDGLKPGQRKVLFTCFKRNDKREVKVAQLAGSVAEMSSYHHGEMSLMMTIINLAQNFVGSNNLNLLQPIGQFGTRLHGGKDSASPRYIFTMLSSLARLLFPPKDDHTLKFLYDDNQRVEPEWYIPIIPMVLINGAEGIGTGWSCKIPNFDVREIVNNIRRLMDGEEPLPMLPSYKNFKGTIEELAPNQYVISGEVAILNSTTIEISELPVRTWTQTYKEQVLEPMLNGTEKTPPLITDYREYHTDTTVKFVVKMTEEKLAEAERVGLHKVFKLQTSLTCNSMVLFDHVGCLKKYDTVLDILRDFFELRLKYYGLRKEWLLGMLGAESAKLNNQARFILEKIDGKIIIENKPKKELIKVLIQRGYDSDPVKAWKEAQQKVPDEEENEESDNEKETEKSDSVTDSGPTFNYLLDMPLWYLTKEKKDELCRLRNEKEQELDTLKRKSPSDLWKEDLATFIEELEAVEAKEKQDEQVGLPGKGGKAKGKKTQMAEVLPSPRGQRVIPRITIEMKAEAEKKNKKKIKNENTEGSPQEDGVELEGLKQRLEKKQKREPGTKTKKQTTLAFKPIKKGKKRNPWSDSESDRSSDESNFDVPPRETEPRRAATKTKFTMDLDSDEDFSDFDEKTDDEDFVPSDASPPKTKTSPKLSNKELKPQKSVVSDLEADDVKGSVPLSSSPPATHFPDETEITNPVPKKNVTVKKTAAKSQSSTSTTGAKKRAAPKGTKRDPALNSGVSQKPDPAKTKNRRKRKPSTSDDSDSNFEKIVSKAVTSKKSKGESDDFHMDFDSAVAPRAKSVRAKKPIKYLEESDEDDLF

Turning to `CCN(CC)CCCn1nc2c3cc(F)c(-c4cc(C)nc(C)c4)c(F)c3n(C3CC3)cc-2c1=O` [Example 16], the results for the IC50 in series [1] and in series [2] were 1.2 µM and 0.49 µM, respectively. The EC50 on human topoisomerase II (setting [4]) stood at 6 µM.
For `Cc1cc(-c2c(F)cc3c4nn(CCN5CCCC5)c(=O)c-4cn(C4CC4)c3c2F)cc(C)n1` [Example 18], the IC50 was determined as 0.035 µM in series [1] and 0.3 µM in series [2]. The EC50 at human topoisomerase II was determined as 650 µM.
For the molecule `Cc1cc(-c2c(F)cc3c4nn(CCN5CCOCC5)c(=O)c-4cn(C4CC4)c3c2F)cc(C)n1` [Example 20], the figures for the half-inhibitory concentration (IC50) in series [1] and in series [2] were 0.41 µM and 2.8 µM, respectively. The EC50 at human topoisomerase II (setting [4]) stood at 48 µM.
For `Cc1cc(-c2c(F)cc3c4nn(-c5ccccc5)c(=O)c-4cn(C4CC4)c3c2F)cc(C)n1` [Example 22], the 50% inhibitory concentration (IC50) in series [1] came to 0.84 µM. Also, the EC50 on human topoisomerase II (setting [4]) came out at 2.7 µM. Besides, the MTD in series [3] (sc) came to 635 mg/kg.
For the molecule `COc1ccc(-n2nc3c4cc(F)c(-c5cc(C)nc(C)c5)c(F)c4n(C4CC4)cc-3c2=O)cc1` [Example 23], the IC50 in series [1] came out at 5.2 µM. Also, the 50% effective concentration (EC50) at human topoisomerase II (footnote c: bell-shaped dose response curve noted, 50% of maximal effect of mAMSA) turned out to be 6.8 µM. The MTD is 140 mg/kg in series [3] (iv) and 1150 mg/kg in series [3] (sc).
For the molecule `Cc1cc(-c2c(F)cc3c4nn(C5CCCCC5)c(=O)c-4cn(C4CC4)c3c2F)cc(C)n1` [Example 40], the values for the IC50 in series [1] and in series [2] were 0.19 µM and 0.68 µM, respectively. The EC50 on human topoisomerase II (setting [4]) came to 0.9 µM.
With `Cc1cc(-c2c(F)cc3c4nn(C5CCCC5)c(=O)c-4cn(C4CC4)c3c2F)cc(C)n1` [Example 41], the values for the IC50 in series [1] and in series [2] were 0.38 µM and 1.1 µM, respectively. The EC50 on human topoisomerase II (setting [4]) is 4 µM.
For `Cc1cc(-c2c(F)cc3c4nn(C5CCCCCC5)c(=O)c-4cn(C4CC4)c3c2F)cc(C)n1` [Example 42], in that order: 1.5 µM, 4.2 µM and 2.9 µM.
Turning to `Cc1cc(-c2c(F)cc3c4nn(CC5CCCCC5)c(=O)c-4cn(C4CC4)c3c2F)cc(C)n1` [Example 43], the IC50 in series [1] came to 4.9 µM; in series [2] it was 6.7 µM. In addition, the EC50 on human topoisomerase II (setting [4]) was found to be 8.2 µM.
Consider `Cc1cc(-c2c(F)cc3c4nn(C5CCOCC5)c(=O)c-4cn(C4CC4)c3c2F)cc(C)n1` [Example 46], for which the IC50 in series [1] came out at 0.25 µM; in series [2] it was 0.29 µM. On human topoisomerase II (setting [4]), the EC50 was 1.7 µM.
As to `Cc1cc(-c2c(F)cc3c4nn(C5CCNCC5)c(=O)c-4cn(C4CC4)c3c2F)cc(C)n1` [Example 49], the IC50 is 2.5 µM in series [1] and 2.3 µM in series [2]. Also, the EC50 on human topoisomerase II (setting [4]) was determined as 5.6 µM.
With `Cc1cc(-c2c(F)cc3c4nn(C5CCN(C)CC5)c(=O)c-4cn(C4CC4)c3c2F)cc(C)n1` [Example 50], the concentration for half-maximal inhibition (IC50) in series [2] was determined as 0.094 µM. Moreover, the EC50 on human topoisomerase II (setting [4]) amounted to 3.2 µM. Also, the MTD in series [3] (iv) was 128 mg/kg.
Turning to `CC(=O)N[C@H]1CC[C@@H](n2nc3c4cc(F)c(-c5cc(C)nc(C)c5)c(F)c4n(C4CC4)cc-3c2=O)CC1` [Example 52a], in series [2], the IC50 came to 1.3 µM. The EC50 at human topoisomerase II (setting [4]) is 7.4 µM.
Take `CC(=O)N[C@H]1CC[C@H](n2nc3c4cc(F)c(-c5cc(C)nc(C)c5)c(F)c4n(C4CC4)cc-3c2=O)CC1` [Example 52b]: the IC50 in series [2] stood at 1.2 µM. Also, the EC50 on human topoisomerase II (setting [4]) stood at 9.8 µM.
With `Cc1cc(-c2c(F)cc3c4nn(CCCCN(C)C)c(=O)c-4cn(C4CC4)c3c2F)cc(C)n1` [Example 54, 5-Cyclopropyl-6,8-difluoro-2,5-dihydro-2-[4-(dimethylamino)-butyl]-7-(2,6-dimethyl-4-pyridinyl) -3H-pyrazolo[4,3-c]quinolin-3-one], the IC50 turned out to be 0.5 µM in series [1] and 0.4 µM in series [2]. The EC50 on human topoisomerase II (setting [4]) worked out at 15 µM.
For `Cc1cc(-c2c(F)cc3c4nn(CCNC(C)(CO)CO)c(=O)c-4cn(C4CC4)c3c2F)cc(C)n1` [Example 55], in that order: 25 µM, 11 µM and 11 µM.
`Cc1cc(-c2c(F)cc3c4nn([C@H]5CC[C@@H](NC=O)CC5)c(=O)c-4cn(C4CC4)c3c2F)cc(C)n1` [Example 57, 2-(cis-4-formamidocyclohexyl)-5-cyclopropyl-6,8-difluoro-2,5-dihydro-7-(2,6-dimethyl-4-pyridinyl)-3H-pyrazolo[4,3-c]quinolin-3-one]: the IC50 in series [2] turned out to be 5.1 µM. The EC50 at human topoisomerase II (setting [4]) was 0.8 µM.
Turning to `Cc1cc(-c2c(F)cc3c4nn([C@H]5CC[C@H](NC=O)CC5)c(=O)c-4cn(C4CC4)c3c2F)cc(C)n1` [Example 58, 2-(trans-4-formamidocyclohexyl)-5-cyclopropyl-6,8-difluoro-2,5-dihydro-7-(2,6-dimethyl-4-pyridinyl)-3H-pyrazolo[4,3-c]quinolin-3-one], the IC50 in series [2] amounted to 9.1 µM. Further, the EC50 at human topoisomerase II (setting [4]) amounted to 1.5 µM.
